This note sets out measurements from US12622938B2 (priority 2020, dated 2026).

The test system of data set [1] is Vaccinia virus. The experiment in a line: microbe, parasite or virus in culture. Format: cell-based.
The subject of data set [2] is Flu B Malaysia/2506/2004. Nature of the data set: Flu B Malaysia/2506/2004, Neutral Red assay, MDCK. Format: cell-based. Particulars: control compound.
For data set [3], the system named is Flu B Shanghai/361/02. The experiment in a line: Flu B Shanghai/361/02, Neutral Red assay, MDCK. Format: cell-based. Particulars: control compound, read-out: CTRL IC50.
Data set [4] deals with Flu B Shanghai/361/02. The experiment in a line: Flu B Shanghai/361/02, Visual assay, MDCK. The format is cell-based.
Data set [5] concerns Flu A (H5N1) Vietnam/1203/2004H. The experiment in a line: microbe, parasite or virus in culture. The format is cell-based.
The subject of data set [6] is Flu B Malaysia/2506/2004. Nature of the data set: Flu B Malaysia/2506/2004, Visual assay, MDCK. Format: cell-based.
Data set [7] deals with HFF cells. Particulars: human.

≈ marks a conversion by molar mass, not a printed value.

Consider `Nc1ccn(C[C@@H](CO)OCP(=O)(O)O)c(=O)n1` [Cidofovir], for which the inhibition at 0.56 µg/mL in data set [1] (Orthopoxvirus vaccinia, HFF, 0.56 μg/mL, read-out: Viral Inhibition Rate) is 11%. Also, the inhibition at 1.67 µg/mL in data set [1] (Orthopoxvirus vaccinia, HFF, 1.67 μg/mL, read-out: Viral Inhibition Rate) turned out to be 53%.

For the compound `C=C(CC[C@@H](C(=O)O)[C@H]1C[C@H](O)[C@@]2(C)C3=CC[C@H]4C(C)(C)[C@@H](O)CC[C@]4(C)C3=CC[C@]12C)C(C)C` [Dehydrosulphurenic Acid], the “Viral Inhibition Rate” value in data set [1] (11 μg/mL) worked out at 16%; in data set [1] (33 μg/mL) it was 58%.

As to `C=C(CC[C@@H](C(=O)O)[C@H]1CC[C@@]2(C)C3=C(CC[C@]12C)[C@@]1(C)CC[C@H](O)C(C)(C)[C@@H]1CC3)C(C)C` [Eburicoic Acid], the inhibition at 11 µg/mL in data set [1] (Orthopoxvirus vaccinia, HFF, 11 μg/mL, read-out: Viral Inhibition Rate) stood at 27%. Further, the inhibition at 33 µg/mL in data set [1] (Orthopoxvirus vaccinia, HFF, 33 μg/mL, read-out: Viral Inhibition Rate) is 29%. Also, in data set [1] (Orthopoxvirus vaccinia, HFF, 100 μg/mL, read-out: Viral Inhibition Rate), the inhibition at 100 µg/mL stood at 55%.

Regarding `NC(=O)c1ncn([C@@H]2O[C@H](CO)[C@@H](O)[C@H]2O)n1` [Ribavirin], the “CTRL EC50” value in data set [2] was 10 µg/mL; in data set [6] (control compound, Flu B Malaysia/2506/2004, Visual) it was 3 µg/mL. Moreover, the IC50 is more than 320 µg/mL in data set [2] (read-out: CTRL IC50); more than 320 µg/mL in data set [3]; more than 320 µg/mL in data set [4] (read-out: CTRL IC50); more than 320 µg/mL in data set [5] (Influenza A virus, H5N1, MDCK, read-out: CTRL IC50); more than 320 µg/mL in data set [6] (read-out: CTRL IC50). In addition, the “CTRL SI” value in data set [4] (control compound, Flu B Shanghai/361/02, Visual) is more than 160; in data set [5] it was more than 46. For the same compound, in data set [4] (read-out: CTRL EC50), the EC50 amounted to 2 µg/mL (≈ 8.19 µM).

For the compound `C=C(CC[C@@H](C(=O)O)[C@H]1C[C@H](O)[C@@]2(C)C3=C(CC[C@]12C)[C@@]1(C)CC[C@H](O)C(C)(C)[C@@H]1CC3)C(C)C` [Sulphurenic acid], the “Viral Inhibition Rate” value is recorded as 36% in data set [1] (3.7 μg/mL), 51% in data set [1] (11 μg/mL) and 58% in data set [1] (33 μg/mL).

Consider `CCO` [ethanol], for which the CC50 in data set [7] stood at 7%.

One may read the inhibition as the relative decrease from the control value, in per cent. Broadly, the IC50 is the concentration needed to halve the response being measured. In general, EC50 refers to the concentration that produces a half-maximal response.
